Measured values from article PMC12061832, “Exploring novel dilazep derivatives as hENT1 inhibitors and potentially covalent molecular tools” (Purinergic Signalling, 2024).
pKi: −log10 of the molar value. Like-named read-outs stand apart in the source and are kept apart here.

Target: T1, hENT1 (Homo sapiens, UniProt Q99808)
T1 construct: performed on erythrocyte cell membranes endogenously expressing the transporter; tissue Sanquin Bloedvoorziening, Amsterdam, The Netherlands; host or cells: erythrocyte membranes (endogenous expression)
T1 sequence (Q99808 1-456): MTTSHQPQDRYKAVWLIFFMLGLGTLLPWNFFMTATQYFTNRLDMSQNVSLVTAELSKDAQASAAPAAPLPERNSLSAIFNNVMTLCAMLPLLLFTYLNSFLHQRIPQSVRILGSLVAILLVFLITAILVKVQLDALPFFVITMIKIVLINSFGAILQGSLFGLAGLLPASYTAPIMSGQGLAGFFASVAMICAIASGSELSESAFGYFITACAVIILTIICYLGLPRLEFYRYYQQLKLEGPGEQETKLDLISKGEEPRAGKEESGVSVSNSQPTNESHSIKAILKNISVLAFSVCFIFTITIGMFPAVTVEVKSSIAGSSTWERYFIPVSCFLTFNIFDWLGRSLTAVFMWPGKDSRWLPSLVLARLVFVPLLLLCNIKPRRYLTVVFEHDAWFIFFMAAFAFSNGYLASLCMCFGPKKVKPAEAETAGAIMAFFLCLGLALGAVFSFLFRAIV
Assay: time-dependent hENT1 radioligand binding assay ([3H]NBTI displacement with or without 4 h preincubation)
Details: for % displacement at 1 μM at 4 h preincubation / % displacement at 1 μM without preincubation / [3H]NBTI displacement: 1 µM inhibitor; for % displacement at 1 μM at 4 h preincubation / % displacement at 1 μM without preincubation: mean (individual values) of two experiments; for pKi: pKi ± SEM at 4 h preincubation; for [3H]NBTI displacement: with or without 4 h preincubation not told apart; for time-dependent shift in affinity (pKi shift) or displacement upon 4 h preincubation: 4 h preincubation vs without preincubation
Protocol: Radioligand displacement assays were performed as previously described. In brief, the experiments were performed on erythrocyte membranes (Sanquin Bloedvoorziening, Amsterdam, The Netherlands) using a single concentration of 1 µM or multiple concentrations (ranging from 10^–10 to 10^–6) of unlabeled inhibitors in the presence of 4 nM [^3H]NBTI at 10 °C for 1 h in assay buffer (50 mM Tris–HCl, pH 7.4, 0.1% w/v CHAPS). Non-specific binding (NSB) was assessed with 10 µM unlabeled NBTI. […] Subsequently, [^3H]NBTI was added to the preincubated and control samples (containing erythrocyte membranes, unlabeled inhibitor and radioligand) and both types of samples were incubated for another hour. Incubation was terminated by rapid vacuum filtration over Whatman™ UniFilter™ 96-well GF/C microplates using a FilterMate™ Universal Harvester (PerkinElmer, Groningen, The Netherlands). Subsequently, the plates were washed ten times with ice-cold wash buffer (50 mM Tris–HCl, pH 7.4). Thereafter, the filters were dried for 45 min at 55 °C and 25 µL of Microscint (PerkinElmer) was added per well.
All experimental data was analyzed using GraphPad Prism 10.0.2 software (GraphPad Software Inc., San Diego, CA, USA). [^3H]NBTI assays were baseline-corrected with NSB and normalized to this value (0%) and TB (100%). The radioligand displacement curves were fitted to a one-site binding model by nonlinear regression from which the pIC50 values were obtained. […] Data shown represent the mean ± SD of at least two or mean ± SEM of at least three individual experiments each performed in duplicate.
Next, the potentially covalent inhibitors that we synthesized were subjected to the aforementioned radioligand displacement assay. To study the existence of a covalent interaction with hENT1, an additional preincubation step was included.

[1] = Ki (nM) at 4 h preincubation, 4 h preincubation at 10 °C
[2] = without preincubation, read-out: Ki (nM) without preincubation (converted)

SMILES | % displacement at 1 μM at 4 h preincubation (4 h preincubation at 10 °C) | % displacement at 1 μM without preincubation (without preincubation) | also measured
COc1cc(C(=O)OCCCN2CCN(CCOC(=O)c3cccc(S(=O)(=O)F)c3)CC2)cc(OC)c1OC [Compound 9a, 3-(4-(2-((3-(fluorosulfonyl)benzoyl)oxy)ethyl)piperazin-1-yl)propyl 3,4,5-trimethoxybenzoate] | 3 (-9, 13) % | -14 (-21, -7) % | 
COc1cc(C(=O)OCCCN2CCN(CCCOC(=O)c3cccc(S(=O)(=O)F)c3)CC2)cc(OC)c1OC [Compound 9b, 3-(4-(3-((3-(fluorosulfonyl)benzoyl)oxy)propyl)piperazin-1-yl)propyl 3,4,5-trimethoxybenzoate] | 33 (32, 34) % | 33 (32, 33) % | 
COc1cc(C(=O)OCCCN2CCN(CCCCOC(=O)c3cccc(S(=O)(=O)F)c3)CC2)cc(OC)c1OC [Compound 9c, 3-(4-(4-((3-(fluorosulfonyl)benzoyl)oxy)butyl)piperazin-1-yl)propyl 3,4,5-trimethoxybenzoate] | 51 (48, 54) % | 61 (53, 69) % | 
COc1cc(C(=O)OCCCN2CCN(CCOC(=O)c3ccc(S(=O)(=O)F)cc3)CC2)cc(OC)c1OC [Compound 9d, 3-(4-(2-((4-(fluorosulfonyl)benzoyl)oxy)ethyl)piperazin-1-yl)propyl 3,4,5-trimethoxybenzoate] | 33 (34, 32) % | 17 (12, 22) % | 
COc1cc(C(=O)OCCCN2CCN(CCCOC(=O)c3ccc(S(=O)(=O)F)cc3)CC2)cc(OC)c1OC [Compound 9e, 3-(4-(3-((4-(fluorosulfonyl)benzoyl)oxy)propyl)piperazin-1-yl)propyl 3,4,5-trimethoxybenzoate] | 26 (30, 22) % | 26 (24, 27) % | 
COc1cc(C(=O)OCCCN2CCN(CCCCOC(=O)c3ccc(S(=O)(=O)F)cc3)CC2)cc(OC)c1OC [Compound 9f, 3-(4-(4-((4-(fluorosulfonyl)benzoyl)oxy)butyl)piperazin-1-yl)propyl 3,4,5-trimethoxybenzoate] | 54 (53, 56) % | 57 (52, 62) % | 
COc1cc(C(=O)OCCCN2CCN(CCCOC(=O)c3ccc(N=C=S)cc3)CC2)cc(OC)c1OC [Compound 9g, 3-(4-(3-((4-isothiocyanatobenzoyl)oxy)propyl)piperazin-1-yl)propyl 3,4,5-trimethoxybenzoate] |  |  | Ki [1]: 29.9 nM; pKi (4 h preincubation at 10 °C): 7.53; Ki [2]: 48.5 nM
C=CC(=O)Nc1cccc(C(=O)OCCCN2CCN(CCCOC(=O)c3cc(OC)c(OC)c(OC)c3)CC2)c1 [Compound 10a, 3-(4-(3-((3-acrylamidobenzoyl)oxy)propyl)piperazin-1-yl)propyl 3,4,5-trimethoxybenzoate] | 24 (18, 30) % | 20 (15, 26) % | [3H]NBTI displacement: around 20%
C=CC(=O)Nc1ccc(C(=O)OCCCN2CCN(CCCOC(=O)c3cc(OC)c(OC)c(OC)c3)CC2)cc1 [Compound 10b, 3-(4-(3-((4-acrylamidobenzoyl)oxy)propyl)piperazin-1-yl)propyl 3,4,5-trimethoxybenzoate] |  |  | time-dependent shift in affinity (pKi shift) or displacement upon 4 h preincubation: absence of a pKi shift; Ki [1]: 43.6 nM; Ki [2]: 33.1 nM
C=CC(=O)Nc1ccc(C(=O)OCCCCN2CCN(CCCOC(=O)c3cc(OC)c(OC)c(OC)c3)CC2)cc1 [Compound 10c, 3-(4-(4-((4-acrylamidobenzoyl)oxy)butyl)piperazin-1-yl)propyl 3,4,5-trimethoxybenzoate] | 41 (30, 51) % | 47 (40, 54) % | 
C=CC(=O)Nc1ccc(C(=O)OCCCN2CCN(CCCOC(=O)c3cc(OC)c(OC)c(OC)c3)CC2)cc1OC [Compound 10d, 3-(4-(3-((4-acrylamido-3-methoxybenzoyl)oxy)propyl)piperazin-1-yl)propyl 3,4,5-trimethoxybenzoate] |  | 27 (28, 26) % | [3H]NBTI displacement: around 20%
C=CC(=O)NCc1ccc(C(=O)OCCCN2CCN(CCCOC(=O)c3cc(OC)c(OC)c(OC)c3)CC2)cc1 [Compound 10e, 3-(4-(3-((4-(acrylamidomethyl)benzoyl)oxy)propyl)piperazin-1-yl)propyl 3,4,5-trimethoxybenzoate] | 29 (20, 37) % | 29 (24, 35) % | 
C=CC(=O)NCCc1ccc(C(=O)OCCCN2CCN(CCCOC(=O)c3cc(OC)c(OC)c(OC)c3)CC2)cc1 [Compound 10f, 3-(4-(3-((4-(2-acrylamidoethyl)benzoyl)oxy)propyl)piperazin-1-yl)propyl 3,4,5-trimethoxybenzoate] | 7 (0, 13) % | 10 (2, 18) % | 
C=CC(=O)NCCOc1c(OC)cc(C(=O)OCCCN2CCN(CCCOC(=O)c3cc(OC)c(OC)c(OC)c3)CC2)cc1OC [Compound 14a, 3-(4-(3-((4-(2-acrylamidoethoxy)-3,5-dimethoxybenzoyl)oxy)propyl)piperazin-1-yl)propyl 3,4,5-trimethoxybenzoate] |  |  | time-dependent shift in affinity (pKi shift) or displacement upon 4 h preincubation: no observable pKi shift; Ki [1]: 50.6 nM; Ki [2]: 48.6 nM
C=CC(=O)NCCCOc1c(OC)cc(C(=O)OCCCN2CCN(CCCOC(=O)c3cc(OC)c(OC)c(OC)c3)CC2)cc1OC [Compound 14b, 3-(4-(3-((4-(3-acrylamidopropoxy)-3,5-dimethoxybenzoyl)oxy)propyl)piperazin-1-yl)propyl 3,4,5-trimethoxybenzoate] |  |  | time-dependent shift in affinity (pKi shift) or displacement upon 4 h preincubation: no significant increase of the affinity; pKi (4 h preincubation at 10 °C): 8.49; Ki [2]: 5.9 nM
COc1cc(C(=O)OCCCN2CCN(CCCOC(=O)c3cc(OC)c(OCCCN=C=S)c(OC)c3)CC2)cc(OC)c1OC [Compound 14c, 3-(4-(3-((4-(3-isothiocyanatopropoxy)-3,5-dimethoxybenzoyl)oxy)propyl)piperazin-1-yl)propyl 3,4,5-trimethoxybenzoate] |  |  | time-dependent shift in affinity (pKi shift) or displacement upon 4 h preincubation: no significant increase of the affinity; pKi (4 h preincubation at 10 °C): 8.81; Ki (without preincubation, read-out: pKi ± SEM without preincubation (converted)): 1.07 nM
C=CS(=O)(=O)NCCCOc1c(OC)cc(C(=O)OCCCN2CCN(CCCOC(=O)c3cc(OC)c(OC)c(OC)c3)CC2)cc1OC [Compound 14d, 3-(4-(3-((3,5-dimethoxy-4-(3-(vinylsulfonamido)propoxy)benzoyl)oxy)propyl)piperazin-1-yl)propyl 3,4,5-trimethoxybenzoate] |  |  | time-dependent shift in affinity (pKi shift) or displacement upon 4 h preincubation: no significant increase of the affinity; Ki [1]: 14.2 nM; Ki [2]: 17.5 nM
